# Results taken from patent publication US4058512A, “Synthetic peptides having growth promoting activity” (AB Kabi, priority 1975, dated 1977).
# Bridge positions count the residues as written; N and C are the ends. Peptide text beside a SMILES is read from it.
# Tested on: human embryonic lung fibroblasts
# Assay: Growth promoting activity in human embryonic lung fibroblasts, cell counting in a counting chamber
# Format: cell-based
# Conditions: for Growth stimulation in %: per cent increase over basal value with 0.67% calf serum; for No. of cells × 10^6: 0.67% calf serum
# Procedure: Tests of the growth promoting activity have been performed in human embryonic lung fibroblasts and the growth promoting activity is measured by cell counting in a counting chamber and expressed as per cent increase over a basal value obtained with using 0.67% calf serum.
smiles,measurement,setting,value
C[C@@H](O)[C@H](NC(=O)[C@@H]1CSSC[C@H](NC(=O)[C@H](CO)NC(=O)[C@H](CCC(=O)O)NC(=O)[C@H](CCC(N)=O)NC(=O)[C@@H](N)CC(=O)O)C(=O)N[C@@H](CCCCN)C(=O)NCC(=O)N[C@@H](CCCNC(=N)N)C(=O)N1)C(=O)N[C@@H](CCC(=O)O)C(=O)NCC(=O)N[C@@H](Cc1ccccc1)C(=O)O [tridecapeptide (cyclic)] (H-DQESCKGRCTEGF-OH; disulfide 5-9),Growth stimulation in %,1 μg per ml medium,14%
same,No. of cells × 10^6,1 μg tridecapeptide per ml medium,2.35 × 10^6
same,Growth stimulation in %,5 μg per ml medium,66%
same,No. of cells × 10^6,5 μg tridecapeptide per ml medium,3.4 × 10^6
same,Growth stimulation in %,10 μg per ml medium,60%
same,No. of cells × 10^6,10 μg tridecapeptide per ml medium,3.3 × 10^6
same,Growth stimulation in %,25 μg per ml medium,51%
same,No. of cells × 10^6,25 μg tridecapeptide per ml medium,3.1 × 10^6
same,Growth stimulation in %,50 μg per ml medium,31%
same,No. of cells × 10^6,50 μg tridecapeptide per ml medium,2.7 × 10^6
same,Effect on total number of cells produced,dosages higher than 10 μug. per ml. of medium,slight inhibitory effect
same,Effect on total number of cells produced,dosages of from 1 to 10 μug. of polypeptide per ml. of medium,dose related increase
